pIC50: −log10 of the molar value. Structures can show the parent of a compound that is named as a salt.
Key:
[1] = molecular target: T1, PDE V (cGMP-specific PDE) (Canis lupus familiaris, UniProt O77746); assay: Inhibitory activity on PDE V purified from canine tracheal smooth muscle (Test Example 1); assay type: biochemical; details: 1.0 μM [3H]cGMP substrate; for inhibition at 0.001 µM: 1 nM, read-out: PDE Inhibitory activity, PDE V, Percent inhibition
T1 construct: purified from canine tracheal smooth muscle; from tissue; host or cells: canine tracheal smooth muscle
Description: The inhibitory activity on PDE derived from canine tracheal smooth muscle
The measurement of the PDE I activity was carried out using 1.0 μM [^3 H]cAMP as a substrate in the presence of 0.4 mM CaCl2 and 20 units/ml calmodulin. The measurement of the PDE II activity was carried out using 1.0 μM [^3 H]cAMP as a substrate in the presence of 10 μM cGMP. The measurement of the PDE III, IV and V activity was carried out using, as a substrate, 1.0 μM [^3 H]cAMP, 1.0 μM [^3 H]cAMP and 1.0 μM [3H]cGMP, respectively. […] Respective reactions were carried out in a buffer having the following composition:
50 mM N,N-bis(2-hydroxyethyl)-2-aminoethanesulfonic acid (pH 7.2), 1 mM MgCl2, 0.1 mg/ml soybean trypsin inhibitor.
(§1) The reaction was started by addition of an enzyme and stopped by addition of hydrochloric acid after 10 to 30 minutes at 30° C. Thereafter, sodium hydroxide was added to neutralize and 5'-AMP or 5'-GMP was converted into adenosine or guanosine using 5'-nucleotidase. The reaction solution was subjected to DEAE-Sephadex A-25 column. [^3 H]Adenosine [^3 H]guanosine was eluted with distilled water and the radioactivity was measured with a liquid scintillation counter.

[2] = molecular target: T2, PDE III (cAMP-specific PDE which is inhibited by cGMP) (Canis lupus familiaris, UniProt A0A8I3NYE0); assay: Inhibitory activity on PDE III purified from canine tracheal smooth muscle (Test Example 1); assay type: biochemical; details: 1.0 μM [3H]cAMP substrate, 10 μM rolipram added; for inhibition at 1 µM: read-out: PDE Inhibitory activity, PDE III, Percent inhibition
T2 construct: purified from canine tracheal smooth muscle; from tissue; host or cells: canine tracheal smooth muscle
T2 sequence (A0A8I3NYE0 1-1135): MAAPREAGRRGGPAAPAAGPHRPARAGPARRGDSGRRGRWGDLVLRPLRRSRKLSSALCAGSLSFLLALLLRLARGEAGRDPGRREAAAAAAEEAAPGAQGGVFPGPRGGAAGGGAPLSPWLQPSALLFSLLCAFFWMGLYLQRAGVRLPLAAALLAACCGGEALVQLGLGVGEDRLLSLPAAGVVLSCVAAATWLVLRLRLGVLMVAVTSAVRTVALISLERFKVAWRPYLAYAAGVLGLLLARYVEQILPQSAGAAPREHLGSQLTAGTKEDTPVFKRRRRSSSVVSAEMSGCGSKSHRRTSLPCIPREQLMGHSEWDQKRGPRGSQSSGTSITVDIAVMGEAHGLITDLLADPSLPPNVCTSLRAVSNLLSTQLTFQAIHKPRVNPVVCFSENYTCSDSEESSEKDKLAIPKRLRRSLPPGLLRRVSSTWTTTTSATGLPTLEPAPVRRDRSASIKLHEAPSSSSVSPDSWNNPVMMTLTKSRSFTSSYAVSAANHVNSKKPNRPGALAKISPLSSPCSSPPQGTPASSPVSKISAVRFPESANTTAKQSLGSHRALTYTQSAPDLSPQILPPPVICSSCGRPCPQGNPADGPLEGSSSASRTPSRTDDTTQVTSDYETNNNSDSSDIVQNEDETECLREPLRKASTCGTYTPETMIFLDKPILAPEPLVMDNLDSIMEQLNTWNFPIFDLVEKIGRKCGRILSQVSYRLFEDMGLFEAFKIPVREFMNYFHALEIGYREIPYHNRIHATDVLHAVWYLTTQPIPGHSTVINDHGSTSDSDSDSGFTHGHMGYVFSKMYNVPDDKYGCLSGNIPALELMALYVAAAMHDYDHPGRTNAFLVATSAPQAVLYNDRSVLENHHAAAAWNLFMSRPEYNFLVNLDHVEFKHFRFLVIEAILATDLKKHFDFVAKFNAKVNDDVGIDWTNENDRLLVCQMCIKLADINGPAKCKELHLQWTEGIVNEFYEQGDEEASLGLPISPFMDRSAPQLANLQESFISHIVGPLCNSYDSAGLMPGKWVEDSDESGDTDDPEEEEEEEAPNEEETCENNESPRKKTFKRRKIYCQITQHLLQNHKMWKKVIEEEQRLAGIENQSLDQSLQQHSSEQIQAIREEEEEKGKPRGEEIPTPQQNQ
Description: as §1

[3] = test system: PDE IV (cAMP-specific PDE); assay: Inhibitory activity on PDE IV purified from canine tracheal smooth muscle (Test Example 1); assay type: biochemical; details: 1.0 μM [3H]cAMP substrate, 25 μM cGMP added
Description: as §1

[4] = test system: PDE I (PDE which is activated by calmodulin); assay: Inhibitory activity on PDE I purified from canine tracheal smooth muscle (Test Example 1); assay type: biochemical; details: 10 μM; 1.0 μM [3H]cAMP substrate, CaCl2 and calmodulin
Description: as §1

[5] = test system: PDE II (PDE which is activated by cGMP); assay: Inhibitory activity on PDE II purified from canine tracheal smooth muscle (Test Example 1); assay type: biochemical; details: 10 μM; 1.0 μM [3H]cAMP substrate, 10 μM cGMP
Description: as §1

[6] = Hypotensive effects in guinea pigs (Test Example 2); assay type: in vivo, guinea pig; details: anesthetized guinea pigs, in DMSO
Description: Hypotensive effects in guinea pigs.
After a guinea pig, anesthetized with pentobarbital, was fixed in the supine position, a cannula was inserted into trachea and guinea pig was artificially ventilated under the conditions of a tidal volume of […] and 60 breathes/min. The carotid artery and the jugular vein were cannulated for measuring arterial blood pressure and administering drugs, respectively. Drugs were dissolved in DMSO (50 μl) and administered intravenously using the above cannula.
The maximum percent values from the pre-drug level (100%) in mean blood pressure (mBP) were obtained.

SMILES	inhibition at 0.001 µM [1]	inhibition at 1 µM [2]	other results
CCn1c(=O)[nH]c2cc3c(NCc4cccc(OC)c4)ncnc3cc21 [Compound 15, 3-ethyl-8-(3-methoxybenzylamino)-2,3-dihydro-1H-imidazo[4,5-g]quinazoline-2-one hydrochloride]	67%	50%	
CCn1c(=O)[nH]c2cc3c(NCc4ccc(F)c(F)c4)ncnc3cc21 [Compound 20, 8-(3,4-difluorobenzylamino)-3-ethyl-2,3-dihydro-1H-imidazo[4,5-g]quinazoline-2-one hydrochloride]	69%	47%	
CCn1c(=O)[nH]c2cc3c(NCC4CCCO4)ncnc3cc21 (stereo not drawn) [Compound 30, 3-ethyl-8-(2,3,4,5-tetrahydro-2-furylmethylamino)^- 2,3-dihydro-1H-imidazo[4,5-g]quinazoline-2-one hydrochloride]			pIC50 [1]: 9.74; pIC50 [2]: 5.96; pIC50 [3]: < 5.00; PDE Inhibitory activity, PDE I, Percent inhibition [4]: 58%; PDE Inhibitory activity, PDE II, Percent inhibition [5]: 61%
CCn1c(=S)[nH]c2cc3c(NCc4ccccc4)ncnc3cc21 [Compound 39, 8-benzylamino-3-ethyl-2,3-dihydro-1H-imidazo[4,5-g]quinazoline-2-thione]			maximum percent values from the pre-drug level (100%) in mean blood pressure (mBP) ([6]; 1 μg/kg i.v.): 100.20%; maximum percent values from the pre-drug level (100%) in mean blood pressure (mBP) ([6]; 3 μg/kg i.v.): 80.00%; maximum percent values from the pre-drug level (100%) in mean blood pressure (mBP) ([6]; 10 μg/kg i.v.): 72.30%; maximum percent values from the pre-drug level (100%) in mean blood pressure (mBP) ([6]; 30 μg/kg i.v.): 51.20%
CCCn1c(=S)[nH]c2cc3c(NCc4ccccc4)ncnc3cc21 [Compound 42, 8-benzylamino-3-(n-propyl)-2,3-dihydro-1H-imidazo[4,5-g]quinazoline-2-thione]	94%	27%	
CCn1c(=S)[nH]c2cc3c(NCc4ccncc4)ncnc3cc21.Cl.Cl [Compound 47, 3-ethyl-8-(4-pyridylmethylamino)-2,3-dihydro-1H-imidazo[4,5-g]quinazoline-2-thione dihydrochloride]	91%	60%	PDE Inhibitory activity, PDE IV, Percent inhibition ([3]; 10 μM): 20%; PDE Inhibitory activity, PDE I, Percent inhibition [4]: 12%; PDE Inhibitory activity, PDE II, Percent inhibition [5]: 19%
CCn1c(=S)[nH]c2cc3c(NCc4cccc(OC)c4)ncnc3cc21 [Compound 51, 3-ethyl-8-(3-methoxybenzylamino)-2,3-dihydro-1H-imidazo[4,5-g]quinazoline-3-thione hydrochloride]	97%	48%	
CCn1c(=S)[nH]c2cc3c(NCc4cccc(C(F)(F)F)c4)ncnc3cc21 [Compound 54, 3-ethyl-8-(3-trifluoromethylbenzylamino)-2,3-dihydro-1H-imidazo[4,5-g]quinazoline-2-thione hydrochloride]	96%	32%	

— patent US5661147A, “Imidazoquinazoline derivatives” (Kyowa Hakko Kogyo Co., Ltd., priority 1993, dated 1997)
